From patent publication US20160030476A1, “Compositions, Methods And Devices For Promoting Wound Healing And Reducing Infection” (IASIS MOLECULAR SCIENCES, priority 2013, published 2016)

Key:
Assay in all cases: Therapeutic index (IC50 fibroblasts / MIC90 in broth)
[1] = tested on: multi-drug resistant Acinetobacter baumannii (AcBc); type: cell-based
Method: (§1) The OD600 nm levels were monitored until OD600 nm of untreated control reached an OD600 nm of approximately 1.0.
(§2) Growth and Viability assays (5,000 and 10,000 cells/well respectively) were set up with human neonatal fibroblasts in sterile tissue culture treated 96 well plates in DMEM (Invitrogen #11995) supplemented with 10% fetal calf serum (Invitrogen #10437-028) 1% Antibiotic-Antimycotic (Invitrogen #15240-062). (Incubator set at 37 C and 5% CO2).
(§3) 10 μl of prepared MTS reagent (Promega # G5430) was added to the wells and absorbance at 490 nm was read once color has stabilized (1-4 hours).
(§4) The therapeutic index was calculated as the IC50/MIC90.

[2] = tested on: multi-drug resistant Pseudomonas aeruginosa (Pseudo); type: cell-based
Method: as §1, §2, §3, §4

[3] = tested on: multi-drug resistant Klebsiella pneumonia (Kleb); type: cell-based
Method: as §1, §2, §3, §4

MRSA = type: cell-based, Staphylococcus aureus
Method: as §1, §2, §3, §4

N[C@@H](CCC(=O)N[C@@H](CS)C(=O)NCC(=O)O)C(=O)O.[Ag] [GSH-Ag, glutathione silver]
AcBc T.I. [1]: 2.9 | Pseudo T.I. [2]: 2.9 | Kleb T.I. [3]: 1.4 | MRSA T.I. (MRSA): 1.5
